Drawing on PMC5893428, “Heligmosomoides polygyrus Venom Allergen-like Protein-4 (HpVAL-4) is a sterol binding protein” (International Journal for Parasitology, 2018), this text covers Kd for one compound.

pKd: −log10 of the molar value.

The target in this assay is T1, HpVAL-4 (Heligmosomoides polygyrus, UniProt A0A183GMB4).
T1 construct: mature protein, Arabidopsis chitinase signal peptide for secretion, no tag mentioned; Nicotiana benthamiana leaf apoplast; N-glycosylated
Kind of assay: radioligand binding, adsorption to Q-Sepharose, scintillation counting.

T1 sequence (A0A183GMB4 entry or part of it): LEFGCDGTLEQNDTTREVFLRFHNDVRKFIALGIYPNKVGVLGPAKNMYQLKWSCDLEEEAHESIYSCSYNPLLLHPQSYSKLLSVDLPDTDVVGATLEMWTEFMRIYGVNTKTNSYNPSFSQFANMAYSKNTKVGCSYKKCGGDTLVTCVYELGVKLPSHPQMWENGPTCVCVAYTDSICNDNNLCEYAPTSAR

One may read the pKd as the negative decadic logarithm of the Kd, by convention in mol/L. High values mean a low Kd, low ones a high Kd. `CC(C)CCC[C@@H](C)[C@H]1CC[C@H]2[C@@H]3CC=C4C[C@@H](O)CC[C@]4(C)[C@H]3CC[C@]12C` [cholesterol] showed a negative logarithm of the Kd (pKd) of 5.82.
